This is an account of results in patent publication US20180133203A1, “METHODS OF TREATING LIVER DISEASE” (Gilead Sciences, Inc., priority 2016, published 2018).

Molecules are shown by their SMILES.

One experiment has as its system Col1a1. The experiment in a line: Hepatic expression of Col1a1 by qRT-PCR, CDHFD/NaNO2 rat model of NASH. The settings on record: vs vehicle; rats; Formula (I) 0.2% in diet, Formula (III) 30 mg/kg/day, week 4 to 14. The format is in vivo, male Wistar rats. The method, then: The following study was conducted to evaluate the efficacy of the combination of an ASK1 inhibitor and an FXR agonist in a rodent model of non-alcoholic steatohepatitis (NASH), relative to the efficacy of the individual agents alone in the model. NASH was induced in male Wistar rats by administration of a choline-deficient high fat diet (CDHFD) combined with the chronic administration of sodium nitrite (CDHFD/NaNO2). The model capitalizes on the “two hit theory” of NASH by inducing both metabolic dysfunction (CDHFD) and oxidative stress (NaNO2) in the liver to result in hepatic fibrosis that is similar in character and severity to that seen in patients with advanced NASH. […] The following endpoints were assessed at the completion of the 14 week study: i) liver fibrosis measured by liver hydroxyproline (OHP) content and by quantitative morphometric analysis of collagen content by Picosirius red (PSR) staining; ii) myofibroblast activation in liver sections as measured by quantitative IHC of the myofibroblast marker desmin; and, iii) Col1a1 and Timp1 in liver tissue measured by RT-PCR. […] All endpoints were assessed at the completion of the 14 week study protocol. […] Quantitative PCR was performed and analyzed using Absolute QPCR Rox Mix (Life Technologies, Cat No # AB-1132) and a 384-format ABI 7900HT Sequence Detection System (Applied Biosystems). […]
In general terms: Real-time PCR tracks product formation cycle by cycle.

A further experiment concerns CDHFD/NaNO2 rats. The experiment in a line: Liver hydroxyproline content in CDHFD/NaNO2 rat model of NASH. The format is in vivo, male Wistar rats. The settings on record: vs vehicle-treated CDHFD/NaNO2 rats; Formula (I) 0.2% in diet, Formula (III) 30 mg/kg/day, week 4 to 14. The method, then:
The following study was conducted to evaluate the efficacy of the combination of an ASK1 inhibitor and an FXR agonist in a rodent model of non-alcoholic steatohepatitis (NASH), relative to the efficacy of the individual agents alone in the model. NASH was induced in male Wistar rats by administration of a choline-deficient high fat diet (CDHFD) combined with the chronic administration of sodium nitrite (CDHFD/NaNO2). The model capitalizes on the “two hit theory” of NASH by inducing both metabolic dysfunction (CDHFD) and oxidative stress (NaNO2) in the liver to result in hepatic fibrosis that is similar in character and severity to that seen in patients with advanced NASH. Rats were fed CDHFD for a total of 14 weeks and were administered NaNO2 from week 4 to 14. […] The following endpoints were assessed at the completion of the 14 week study: i) liver fibrosis measured by liver hydroxyproline (OHP) content and by quantitative morphometric analysis of collagen content by Picosirius red (PSR) staining; ii) myofibroblast activation in liver sections as measured by quantitative IHC of the myofibroblast marker desmin; and, iii) Col1a1 and Timp1 in liver tissue measured by RT-PCR. […] All endpoints were assessed at the completion of the 14 week study protocol. […] The hydroxyproline content was determined photometrically by measuring the absorbance at 560 nm. […]

For `O=C(Nc1cccc(-c2nncn2C2CC2)c1)c1cc(-n2cnc(C3CC3)c2)ccn1` [Formula (I)], the “reduction of hepatic Col1a1 expression induced by CDHFD/NaNO2” value in the experiment on Col1a1 was 65%. Further, the “reduction of liver hydroxyproline content” value in the experiment with CDHFD/NaNO2 rats is reported as “did not significantly reduce”.

On to `O=C(O)c1ccnc(N2CC(O)(c3ccc(OCc4c(-c5c(Cl)cccc5Cl)noc4C4CC4)cc3Cl)C2)c1` [Formula (III)], for which the “reduction of hepatic Col1a1 expression induced by CDHFD/NaNO2” value in the experiment on Col1a1 is reported as 44%. Also, in the experiment with CDHFD/NaNO2 rats, the “reduction of liver hydroxyproline content” value is listed as “did not significantly reduce”.
